Assay results from paper PMC8831520, “Small molecule SWELL1 complex induction improves glycemic control and nonalcoholic fatty liver disease in murine Type 2 diabetes” (Nature Communications, 2022).

Legend:
[1] = tested on: SWELL1/LRRC8a-e mRNA in 3T3-F442A cells; experiment: qRT-PCR of LRRC8 family mRNA; type: cell-based, murine; conditions: 10 µM, 96 h
Procedure: RNA samples were isolated using the PureLink RNA kit (Life Technologies) as per the manufacturer’s instructions. Complementary DNA (cDNA) synthesis was carried out using an iScript Reverse Transcriptase kit (Bio-Rad). […] Each sample measurement was carried out in triplicate. GAPDH was used as the internal standard and the fold change was calculated relative to GAPDH was normalized to vehicle group. The following qRT-PCR primers (5′ to 3′) were used: GAPDH forward—[…] and reverse— […]; SWELL1 forward—[…] and reverse— […]; LRRC8b forward—[…] and reverse— […]; LRRC8c forward—[…] and reverse—[…]; LRRC8d forward—[…] and reverse— […]; LRRC8e forward—[…] and reverse— […], respectively.

ICl,SWELL = tested on: ICl,SWELL; set-up: method as in PMID 11724753; conditions: cited from earlier work
[2] = set-up: method as in Zhang et al., Experimental Neurology, 2008; conditions: ref Zhang et al., Experimental Neurology, 2008; cited from earlier work

CCCCC1(C2CCCC2)Cc2cc(OCCCC(=O)O)c(Cl)c(Cl)c2C1=O (stereo not drawn) [SN-401, 4-((2-butyl-6,7-dichloro-2-cyclopentyl-1-oxo-2,3-dihydro-1H-inden-5-yl)oxy)butanoic acid]
SWELL1 and LRRC8b-e mRNA [1]: not associated with increases in SWELL1 mRNA | IC50 (ICl,SWELL): ~5 µM | blood brain barrier passage [2]: does not cross the blood brain barrier
